One may read the Dmax as the greatest extent of degradation seen. The DC50 is the midpoint of the concentration-degradation curve.

Experimental findings from US20260092071A1, “COMPOUNDS AND COMPOSITIONS AS SMARCA2/4 DEGRADERS AND USES THEREOF” (REGENTS OF THE UNIVERSITY OF MICHIGAN, priority 2022, published 2026) are described below.

Experiment [1] concerns the target SMARCA4 (Homo sapiens, UniProt P51532). The experiment can be described thus: HiBiT assay for protein degradation, Hela SMARCA4-HiBiT cells (A series). Format: cell-based. On the set-up: fuse HiBiT to the carboxy terminus of SMARCA2 (Promega CS302365) or SMARCA4 (Promega CS3023225); host or cells: HeLa (CRISPR/Cas9 HiBiT knock-in). To be noted: for DC50: read-out: SMARC A4 Hela HiBit DC50. In a few lines:
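SMARCA4 degradation was measured in HeLa cells in which HiBiT had been knocked into the SMARCA4 carboxy terminus via CRISPR/Cas9 (Promega CS3023225). Cells were maintained in DMEM with FBS and penicillin-streptomycin. At the end of treatment, SMARCA4 levels were read by lytic HiBiT luminescence (Nano-Glo®, Promega N3050), and data were analyzed with GraphPad Prism.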
Background: With HiBiT, luminescence reflects the tagged protein that the partner subunit can reach.

For experiment [2], the target named is SMARCA2 (Homo sapiens, UniProt P51531). The experiment can be described thus: HiBiT assay for protein degradation, Hela SMARCA2-HiBiT cells (A series). To be noted: for DC50: read-out: SMARC A2 Hela HiBit DC50; for Dmax: read-out: SMARC A2 Hela HiBit Dmax (%). The experiment is classed as cell-based. Set-up: Hela cells were genetically modified via CRISPR/Cas9 to fuse HiBiT to the carboxy terminus of SMARCA2; host or cells: HeLa (CRISPR/Cas9 HiBiT knock-in). In a few lines:
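SMARCA2 degradation was measured in HeLa cells whose endogenous SMARCA2 carries a carboxy-terminal HiBiT tag introduced by CRISPR/Cas9 (Promega CS302365). Cells were maintained in DMEM with FBS and penicillin-streptomycin. SMARCA2 levels were read at the end of the experiment by Nano-Glo® HiBiT lytic luminescence (Promega N3050) and analyzed in GraphPad Prism.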

The mark [3] stands for this setting: Hela SMARCA4-HiBiT cells, 24 hours treatment.
Setting [4] is: Hela SMARCA4-HiBiT cells, 24 hours treatment, read-out: SMARC A4 Hela HiBit Dmax.
[5] abbreviates: Hela SMARCA2-HiBiT cells, 24 hours treatment.

Where two headings read alike, the source gives them in different places.

Sequence of SMARCA4 (P51532 whole entry): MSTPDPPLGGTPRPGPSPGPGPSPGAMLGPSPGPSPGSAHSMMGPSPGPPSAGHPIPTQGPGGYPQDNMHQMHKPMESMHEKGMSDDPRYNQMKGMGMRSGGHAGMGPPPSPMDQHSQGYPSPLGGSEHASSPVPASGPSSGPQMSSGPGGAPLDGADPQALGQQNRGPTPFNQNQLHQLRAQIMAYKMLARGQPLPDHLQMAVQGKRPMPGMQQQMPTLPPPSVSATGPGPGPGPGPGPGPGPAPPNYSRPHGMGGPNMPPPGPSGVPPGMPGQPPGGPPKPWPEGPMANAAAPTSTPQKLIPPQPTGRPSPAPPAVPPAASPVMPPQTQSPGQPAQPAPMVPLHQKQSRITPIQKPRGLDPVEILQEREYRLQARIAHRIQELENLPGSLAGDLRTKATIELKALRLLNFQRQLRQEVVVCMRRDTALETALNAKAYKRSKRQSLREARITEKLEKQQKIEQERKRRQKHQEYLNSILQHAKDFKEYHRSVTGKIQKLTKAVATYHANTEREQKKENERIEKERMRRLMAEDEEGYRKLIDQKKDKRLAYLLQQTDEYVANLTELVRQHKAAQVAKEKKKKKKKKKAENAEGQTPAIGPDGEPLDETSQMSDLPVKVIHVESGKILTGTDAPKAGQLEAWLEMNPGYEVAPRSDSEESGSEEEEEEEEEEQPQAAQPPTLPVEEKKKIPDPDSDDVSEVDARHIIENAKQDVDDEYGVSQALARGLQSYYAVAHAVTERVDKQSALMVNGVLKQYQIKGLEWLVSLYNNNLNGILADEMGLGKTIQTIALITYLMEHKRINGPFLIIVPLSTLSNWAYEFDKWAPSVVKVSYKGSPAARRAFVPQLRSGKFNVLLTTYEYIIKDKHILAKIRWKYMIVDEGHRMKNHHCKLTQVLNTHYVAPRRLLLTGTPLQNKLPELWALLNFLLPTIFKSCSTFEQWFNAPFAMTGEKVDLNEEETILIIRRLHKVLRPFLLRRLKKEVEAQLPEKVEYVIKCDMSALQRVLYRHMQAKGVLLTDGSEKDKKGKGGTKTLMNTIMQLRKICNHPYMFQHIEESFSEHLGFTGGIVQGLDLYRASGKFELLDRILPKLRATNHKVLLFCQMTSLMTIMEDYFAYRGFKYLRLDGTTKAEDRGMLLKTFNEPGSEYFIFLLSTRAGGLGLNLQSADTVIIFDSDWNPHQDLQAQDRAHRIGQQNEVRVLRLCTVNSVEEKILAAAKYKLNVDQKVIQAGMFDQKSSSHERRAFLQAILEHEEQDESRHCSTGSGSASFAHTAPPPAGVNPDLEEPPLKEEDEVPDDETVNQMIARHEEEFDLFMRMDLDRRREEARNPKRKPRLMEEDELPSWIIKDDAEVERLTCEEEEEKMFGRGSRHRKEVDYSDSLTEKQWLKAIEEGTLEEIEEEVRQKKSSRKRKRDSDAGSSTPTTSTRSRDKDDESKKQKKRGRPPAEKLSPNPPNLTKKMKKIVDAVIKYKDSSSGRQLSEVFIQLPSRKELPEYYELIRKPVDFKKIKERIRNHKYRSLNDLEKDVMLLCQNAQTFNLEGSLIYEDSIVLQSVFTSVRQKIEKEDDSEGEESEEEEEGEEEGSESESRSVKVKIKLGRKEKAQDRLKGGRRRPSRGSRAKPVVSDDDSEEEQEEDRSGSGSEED
Sequence of SMARCA2 (P51531 whole entry): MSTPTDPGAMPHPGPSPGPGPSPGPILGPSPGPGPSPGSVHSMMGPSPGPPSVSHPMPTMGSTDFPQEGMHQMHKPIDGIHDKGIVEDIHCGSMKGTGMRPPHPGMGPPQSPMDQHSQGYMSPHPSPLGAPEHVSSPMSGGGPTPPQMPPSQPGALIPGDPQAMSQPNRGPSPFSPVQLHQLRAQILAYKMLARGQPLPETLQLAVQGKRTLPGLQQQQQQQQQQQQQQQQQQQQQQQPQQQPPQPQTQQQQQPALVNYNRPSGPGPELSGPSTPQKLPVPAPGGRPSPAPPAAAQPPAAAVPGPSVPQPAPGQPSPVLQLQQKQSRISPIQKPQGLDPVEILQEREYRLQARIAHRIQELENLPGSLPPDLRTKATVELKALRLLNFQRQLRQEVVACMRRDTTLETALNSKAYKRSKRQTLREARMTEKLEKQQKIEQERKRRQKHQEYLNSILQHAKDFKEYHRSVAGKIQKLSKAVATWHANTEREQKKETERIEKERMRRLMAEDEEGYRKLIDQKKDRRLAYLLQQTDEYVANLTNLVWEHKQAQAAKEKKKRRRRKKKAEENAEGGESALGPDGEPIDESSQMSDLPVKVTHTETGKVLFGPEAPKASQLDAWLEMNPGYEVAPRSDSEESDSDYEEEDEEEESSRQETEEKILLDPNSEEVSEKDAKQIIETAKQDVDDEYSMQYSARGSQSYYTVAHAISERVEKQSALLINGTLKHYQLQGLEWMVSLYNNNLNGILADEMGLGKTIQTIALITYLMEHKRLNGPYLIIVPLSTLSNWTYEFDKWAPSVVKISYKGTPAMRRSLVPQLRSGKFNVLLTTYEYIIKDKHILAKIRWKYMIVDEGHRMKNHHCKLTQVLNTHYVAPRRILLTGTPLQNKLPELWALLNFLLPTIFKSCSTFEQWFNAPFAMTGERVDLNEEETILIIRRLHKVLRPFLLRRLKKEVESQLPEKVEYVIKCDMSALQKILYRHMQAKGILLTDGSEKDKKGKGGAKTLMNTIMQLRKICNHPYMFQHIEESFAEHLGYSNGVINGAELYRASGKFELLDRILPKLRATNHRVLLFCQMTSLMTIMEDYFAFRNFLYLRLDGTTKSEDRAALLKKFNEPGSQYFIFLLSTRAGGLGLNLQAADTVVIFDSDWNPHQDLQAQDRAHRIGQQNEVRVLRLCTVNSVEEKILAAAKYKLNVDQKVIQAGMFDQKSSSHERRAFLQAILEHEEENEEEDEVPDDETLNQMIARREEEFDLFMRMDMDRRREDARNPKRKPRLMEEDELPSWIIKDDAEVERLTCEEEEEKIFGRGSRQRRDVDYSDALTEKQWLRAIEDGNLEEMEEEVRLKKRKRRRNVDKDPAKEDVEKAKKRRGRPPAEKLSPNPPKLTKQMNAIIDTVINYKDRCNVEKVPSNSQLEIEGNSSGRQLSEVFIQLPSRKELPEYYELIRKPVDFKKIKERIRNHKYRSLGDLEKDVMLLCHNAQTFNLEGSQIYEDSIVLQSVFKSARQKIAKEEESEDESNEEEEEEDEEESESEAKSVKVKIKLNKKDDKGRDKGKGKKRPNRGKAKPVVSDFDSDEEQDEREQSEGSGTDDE

`Cc1ncsc1-c1ccc([C@H](C)NC(=O)[C@@H]2C[C@@H](O)CN2C(=O)[C@H](C2CCN(C(=O)[C@@H]3COCCO3)CC2)n2cc([C@H]3CC[C@H](CN4CCC(c5ccc6c(c5)-n5c(nc(=O)c7c(Cl)cccc75)C65CCCCC5)CC4)CC3)nn2)cc1` [Compound A113, (2S,4R)-1-((S)-2-(1-((S)-1,4-dioxane-2-carbonyl)piperidin-4-yl)-2-(4-((1r,4S)-4-((4-(4′-chloro-5′-oxo-5′H-spiro[cyclohexane-1,7′-indolo[1,2-a]quinazolin]-10′-yl)piperidin-1-yl)methyl)cyclohexyl)-1H-1,2,3-triazol-1-yl)acetyl)-4-hydroxy-N—((S)-1-(4-(4-methylthiazol-5-yl)phenyl)ethyl)pyrrolidine-2-carboxamide]: the “SMARC A4 Hela HiBit DC50(nM)” value in experiment [1] (setting [3]) is recorded as “No fit”. The Dmax in experiment [1] (setting [4]) was in the range of 70 to 90%. In experiment [2] (setting [5]), the DC50 was under 10 nM and the Dmax was over 90%.
Consider `Cc1ncsc1-c1ccc([C@H](CN2CC(C)(F)C2)NC(=O)[C@@H]2C[C@@H](O)CN2C(=O)[C@@H](n2cc([C@H]3CC[C@H](CN4CCC(c5ccc6c(c5)-n5c(nc(=O)c7c(Cl)cccc75)C6(C)C)CC4)CC3)nn2)C(C)(C)C)cc1` [Compound A93, (2S,4R)-1-((S)-2-(4-((1r,4S)-4-((4-(4-chloro-7,7-dimethyl-5-oxo-5,7-dihydroindolo[1,2-a]quinazolin-10-yl)piperidin-1-yl)methyl)cyclohexyl)-1H-1,2,3-triazol-1-yl)-3,3-dimethylbutanoyl)-N—((R)-2-(3-fluoro-3-methylazetidin-1-yl)-1-(4-(4-methylthiazol-5-yl)phenyl)ethyl)-4-hydroxypyrrolidine-2-carboxamide], for which the DC50 in experiment [1] (setting [3]) was over 1000 nM; in experiment [2] (setting [5]), under 10 nM. For the same compound, the Dmax is under 50% in experiment [1] (setting [4]) and over 90% in experiment [2] (setting [5]).
Regarding `Cc1ncsc1-c1ccc([C@H](C)NC(=O)[C@@H]2C[C@@H](O)CN2C(=O)[C@@H](n2cc([C@H]3C[C@H](CN4CCC(c5ccc6c(c5)C5(CCCCC5)c5nc(=O)c7c(Br)cccc7n5-6)CC4)C3)nn2)C(C)(C)C)cc1` [Compound A61, (2S,4R)-1-((S)-2-(4-((1r,3S)-3-((4-(4′-bromo-5′-oxo-5′H-spiro[cyclohexane-1,7′-indolo[1,2-a]quinazolin]-9′-yl)piperidin-1-yl)methyl)cyclobutyl)-1H-1,2,3-triazol-1-yl)-3,3-dimethylbutanoyl)-4-hydroxy-N—((S)-1-(4-(4-methylthiazol-5-yl)phenyl)ethyl)pyrrolidine-2-carboxamide], in experiment [1] (setting [3]), the “SMARC A4 Hela HiBit Dmax(%)” value was “A (A (>90% degradation))”. Besides, the half-maximal degradation concentration (DC50) in experiment [1] and in experiment [2] was under 100 nM each time. Moreover, the “SMARC A2 Hela HiBit Dmax (%)” value in experiment [2] (setting [5]) is given as “A (A (>90% degradation))”.
Regarding `Cc1ncsc1-c1ccc([C@H](Cn2cc(CN3CCC(c4ccc5c(c4)C4(CCCCC4)c4nc(=O)c6c(Br)cccc6n4-5)CC3)nn2)NC(=O)[C@@H]2C[C@@H](O)CN2C(=O)[C@@H](n2cc(C3CC3)nn2)C(C)(C)C)cc1` [Compound A115, (2S,4R)—N—((R)-2-(4-((4-(4′-bromo-5′-oxo-5′H-spiro[cyclohexane-1,7′-indolo[1,2-a]quinazolin]-9′-yl)piperidin-1-yl)methyl)-1H-1,2,3-triazol-1-yl)-1-(4-(4-methylthiazol-5-yl)phenyl)ethyl)-1-((S)-2-(4-cyclopropyl-1H-1,2,3-triazol-1-yl)-3,3-dimethylbutanoyl)-4-hydroxypyrrolidine-2-carboxamide], the DC50 in experiment [1] (setting [3]) and in experiment [2] (setting [5]) was 10 to 100 nM in each case. For the same compound, the Dmax is over 90% in experiment [1] (setting [4]) and 70 to 90% in experiment [2] (setting [5]).
Regarding `Cc1ncsc1-c1ccc([C@H](C)NC(=O)[C@@H]2C[C@@H](O)CN2C(=O)[C@@H](NC(=O)C23CCC(CN4CCC(c5ccc6c(c5)-n5c(nc(=O)c7c(Br)cccc75)C65CCCCC5)CC4)(CC2)CC3)C(C)(C)C)cc1` [Compound A29], the Dmax in experiment [1] (Hela SMARCA4-HiBiT cells, 24 hours treatment, read-out: SMARC A4 Hela HiBit Dmax(%)) is under 50%; in experiment [2] (HeLa), 70 to 90%. Besides, the DC50 is over 1000 nM in experiment [1] and under 100 nM in experiment [2].
As for `Cc1ncsc1-c1ccc([C@H](CN2CCOCC2)NC(=O)[C@@H]2C[C@@H](O)CN2C(=O)[C@H](C(C)C)n2cc([C@H]3CC[C@H](CN4CCC(c5ccc6c(c5)-n5c(nc(=O)c7c(Cl)cccc75)C6(C)C)CC4)CC3)nn2)cc1` [Compound A104, (2S,4R)-1-((S)-2-(4-((1r,4S)-4-((4-(4-chloro-7,7-dimethyl-5-oxo-5,7-dihydroindolo[1,2-a]quinazolin-10-yl)piperidin-1-yl)methyl)cyclohexyl)-1H-1,2,3-triazol-1-yl)-3-methylbutanoyl)-4-hydroxy-N-((R)-1-(4-(4-methylthiazol-5-yl)phenyl)-2-morpholinoethyl)pyrrolidine-2-carboxamide], the DC50 in experiment [1] (setting [3]) is over 1000 nM; in experiment [2] (setting [5]) it was under 10 nM. The Dmax in experiment [1] (setting [4]) is 50 to 69%; in experiment [2] (setting [5]) it was over 90%.
On the same counts, the results for `COCCOCCOCCOCCOC[C@H](NC(=O)[C@@H]1C[C@@H](O)CN1C(=O)[C@@H](n1cc([C@H]2CC[C@H](CN3CCC(c4ccc5c(c4)-n4c(nc(=O)c6c(Cl)cccc64)C54CCCCC4)CC3)CC2)nn1)C(C)(C)C)c1ccc(-c2scnc2C)cc1` [Compound A149, (2S,4R)-1-((S)-2-(4-((1r,4S)-4-((4-(4′-chloro-5′-oxo-5′H-spiro[cyclohexane-1,7′-indolo[1,2-a]quinazolin]-10′-yl)piperidin-1-yl)methyl)cyclohexyl)-1H-1,2,3-triazol-1-yl)-3,3-dimethylbutanoyl)-4-hydroxy-N—((R)-16-(4-(4-methylthiazol-5-yl)phenyl)-2,5,8,11,14-pentaoxahexadecan-16-yl)pyrrolidine-2-carboxamide] are over 1000 nM, under 10 nM, 50 to 69% and over 90%.
For `Cc1ncsc1-c1ccc([C@@H](NC(=O)[C@@H]2C[C@@H](O)CN2C(=O)[C@@H](n2cc(C3CC3)nn2)C(C)(C)C)C(=O)N2CCC(CN3CCC(c4ccc5c(c4)-n4c(nc(=O)c6c(Br)cccc64)C54CCCCC4)CC3)CC2)cc1` [Compound A136, (2S,4R)—N—((R)-2-(4-((4-(4′-bromo-5′-oxo-5′H-spiro[cyclohexane-1,7′-indolo[1,2-a]quinazolin]-10′-yl)piperidin-1-yl)methyl)piperidin-1-yl)-1-(4-(4-methylthiazol-5-yl)phenyl)-2-oxoethyl)-1-((S)-2-(4-cyclopropyl-1H-1,2,3-triazol-1-yl)-3,3-dimethylbutanoyl)-4-hydroxypyrrolidine-2-carboxamide], in that order: under 10 nM, under 10 nM, over 90% and over 90%.
For the compound `Cc1ncsc1-c1ccc([C@H](C)NC(=O)[C@@H]2C[C@@H](O)CN2C(=O)[C@H](C2CCN(C(=O)CCCN3CCC(c4ccc5c(c4)-n4c(nc(=O)c6c(Cl)cccc64)C54CCCCC4)CC3)CC2)n2cc(C3CC3)nn2)cc1` [Compound A106, (2S,4R)-1-((S)-2-(1-(4-(4-(4′-chloro-5′-oxo-5′H-spiro[cyclohexane-1,7′-indolo[1,2-a]quinazolin]-10′-yl)piperidin-1-yl)butanoyl)piperidin-4-yl)-2-(4-cyclopropyl-1H-1,2,3-triazol-1-yl)acetyl)-4-hydroxy-N—((S)-1-(4-(4-methylthiazol-5-yl)phenyl)ethyl)pyrrolidine-2-carboxamide], the 50% degradation concentration (DC50) in experiment [1] (setting [3]) and in experiment [2] (setting [5]) was 100 to 1000 nM in each case. Moreover, the results for the Dmax in experiment [1] (setting [4]) and in experiment [2] (setting [5]) were under 50% and 70 to 90%, respectively.
Take `Cc1ncsc1-c1ccc([C@H](C)NC(=O)[C@@H]2C[C@@H](O)CN2C(=O)[C@@H](NC(=O)[C@H]2CC[C@H](CN3CCC(c4ccc5c(c4)C4(CCCCC4)c4nc(=O)c6c(Br)cccc6n4-5)CC3)CC2)C(C)(C)C)cc1` [Compound A14, (2S,4R)-1-((S)-2-((1r,4S)-4-((4-(4′-bromo-5′-oxo-5′H-spiro[cyclohexane-1,7′-indolo[1,2-a]quinazolin]-9′-yl)piperidin-1-yl)methyl)cyclohexane-1-carboxamido)-3,3-dimethylbutanoyl)-4-hydroxy-N—((S)-1-(4-(4-methylthiazol-5-yl)phenyl)ethyl)pyrrolidine-2-carboxamide]: the Dmax in experiment [1] (HeLa, read-out: SMARC A4 Hela HiBit Dmax(%)) is 50 to 69%; in experiment [2] (HeLa), over 90%. Further, the DC50 in experiment [1] (setting [3]) was 100 to 500 nM; in experiment [2] (setting [5]), under 100 nM.
